Target: human PDE4B1 (Homo sapiens (Human), UniProt Q07343)
Experiment: cAMP HTRF assay to determine the activity of hPDE4B1
Format: biochemical
Conditions: IC50 inhibition of PDE4B; human recombinant PDE4B1, cAMP HTRF assay
Experimental: Biological Testing cAMP HTRF® Assay to Determine the Activity of hPDE4B1
The inhibiting effect of the compounds on the enzyme activity of human PDE4B1 was measured by the quantification of 5′-adenosine monophosphate (5′-AMP), which is formed from 3′,5′-cyclic adenosine monophosphate (cAMP). Human recombinant enzyme, expressed in Sf9 cells, and the HTRF (homogeneous time-resolved fluorescence) detection method were used in the assay.
The test compound or water (control) was mixed with the human recombinant PDE4B1 enzyme (4.8 U) in a buffer consisting of 44.4 mM tris-HCl, 5.28 mM MgCl2, 2.64 mM DTT and 0.044% Tween 20 (pH 7.8). After adding the cAMP enzyme substrate (final concentration 40 nM), the mixture was incubated for 30 minutes at room temperature. Then a fluorescence acceptor (Dye2 marked with cAMP), a fluorescence donor (anti-cAMP antibody marked with a europium cryptate) and the non-specific phosphodiesterase inhibitor IBMX (3-isobutyl-1-methylxanthine; final concentration 1 mM) were added. After 60 min the fluorescence transfer, which correlates with the amount of remaining cAMP, was measured with a microplate reader (Rubystar, BMG) at λex=337 nm, λem=620 nm and λem=665 nm. The enzyme activity was calculated from the quotient formed from the measured signal at 665 nm and that at 620 nm. The result was expressed as the percentage inhibition of enzyme activity of the control (without PDE4 inhibitor). The enzyme was omitted for measurement of the basal control.
[N. Saldou et al., Comparison of recombinant human PDE4 isoforms: interaction with substrate and inhibitors, Cell. Signal. Vol. 10, No. 6, 427-440, 1998]. Several compounds according to the invention are tested in the above-described assay.

Chain of human PDE4B1 (Q07343 whole entry): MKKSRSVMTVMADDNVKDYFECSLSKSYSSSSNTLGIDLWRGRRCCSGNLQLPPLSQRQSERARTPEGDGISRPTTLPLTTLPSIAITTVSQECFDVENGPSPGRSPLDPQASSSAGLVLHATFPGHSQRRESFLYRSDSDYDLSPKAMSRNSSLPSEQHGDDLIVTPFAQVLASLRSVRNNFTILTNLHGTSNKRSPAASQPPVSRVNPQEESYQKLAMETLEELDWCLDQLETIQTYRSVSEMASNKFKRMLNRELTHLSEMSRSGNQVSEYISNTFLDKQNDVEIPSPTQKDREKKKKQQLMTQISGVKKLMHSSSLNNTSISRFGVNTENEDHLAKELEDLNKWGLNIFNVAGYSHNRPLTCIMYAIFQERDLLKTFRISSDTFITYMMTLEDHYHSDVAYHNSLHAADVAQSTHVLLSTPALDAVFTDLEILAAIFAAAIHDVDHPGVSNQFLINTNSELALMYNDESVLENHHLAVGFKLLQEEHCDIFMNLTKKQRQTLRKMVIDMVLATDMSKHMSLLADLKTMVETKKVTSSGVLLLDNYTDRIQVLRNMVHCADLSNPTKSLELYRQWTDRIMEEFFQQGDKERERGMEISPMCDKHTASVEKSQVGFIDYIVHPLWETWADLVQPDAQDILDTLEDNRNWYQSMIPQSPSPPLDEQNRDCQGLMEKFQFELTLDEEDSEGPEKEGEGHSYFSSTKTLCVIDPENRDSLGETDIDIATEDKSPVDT

| Compound | IC50 [µM] |
| --- | --- |
| O=C(c1ccc2c(c1)N(c1ncc(-c3ccc(F)s3)cn1)CC21CC1)N1CCOCC1 [Compound 148, [1-[5-(5-Fluoro-thiophen-2-yl)-pyrimidin-2-yl]-spiro[1,2-dihydro-indole-3,1′-cyclopropane]-6-yl]-morpholin-4-yl-methanone] | < 0.1 |
| CN1CCN(C(=O)c2ccc3c(c2)N(c2ncc(-c4ccccc4F)cn2)CC32CC2)CC1 [Compound 60, [1-[5-(2-Fluorophenyl)-pyrimidin-2-yl]-spiro[1,2-dihydro-indole-3,1′-cyclopropane]-6-yl]-(4-methyl-piperazin-1-yl)-methanone] | < 0.1 |
| O=C(c1ccc2c(c1)N(c1ncc(-c3ccccn3)cn1)CC21CC1)N1CCCC1 [Compound 175, [1-(5-Pyridin-2-yl-pyrimidin-2-yl)-spiro[1,2-dihydro-indole-3,1′-cyclopropane]-6-yl]-pyrrolidin-1-yl-methanone] | < 0.1 |
| O=C(c1ccc2c(c1)N(c1ncc(-c3c(F)cncc3F)cn1)CC21CC1)N1CCOCC1 [Compound 166, [1-[5-(3,5-Difluoro-pyridin-4-yl)-pyrimidin-2-yl]-spiro[1,2-dihydro-indole-3,1′-cyclopropane]-6-yl]-morpholin-4-yl-methanone] | < 0.1 |
| Cc1cc(-c2cnc(N3CC4(CC4)c4ccc(C(=O)N(C)CCO)cc43)nc2)ccn1 [Compound 214, N-(2-Hydroxy-ethyl)-N-methyl-1-[5-(2-methyl-pyridin-4-yl)-pyrimidin-2-yl]-spiro[1,2-dihydro-indole-3,1′-cyclopropane]-6-carboxylic acid amide] | < 0.1 |
| O=C(c1ccc2c(c1)N(c1ncc(-c3ccccc3F)cn1)CC21CC1)N1CCOCC1 [Compound 1, [1-[5-(2-Fluorophenyl)-pyrimidin-2-yl]-spiro[1,2-dihydro-indole-3,1′-cyclopropane]-6-yl]-morpholin-4-yl-methanone] | < 0.1 |
| Cn1cc(-c2cnc(N3CC4(CC4)c4ccc(C(=O)N5CC[C@@H](N)C5)cc43)nc2)cn1 [Compound 173, [(3R)-3-Amino-pyrrolidin-1-yl]-[1-[5-(1-methyl-1H-pyrazol-4-yl)-pyrimidin-2-yl]-spiro[1,2-dihydro-indole-3,1′-cyclopropane]-6-yl]-methanone] | < 0.1 |
| NC(=O)c1ccc(-c2cnc(N3CC4(CC4)c4ccc(C(=O)N5CCNCC5)cc43)nc2)c(F)c1 [Compound 119, 3-Fluoro-4-[2-[6-(piperazine-1-carbonyl)-spiro[1,2-dihydro-indole-3,1′-cyclopropane]-1-yl]-pyrimidin-5-yl]-benzamide] | < 0.1 |
| COc1ccc(C(N)=O)c(-c2cnc(N3CC4(CC4)c4ccc(C(=O)N5CCNCC5)cc43)nc2)c1 [Compound 122, 4-Methoxy-2-[2-[6-(piperazine-1-carbonyl)-spiro[1,2-dihydro-indole-3,1′-cyclopropane]-1-yl]-pyrimidin-5-yl]-benzamide] | 1 to 10 |
| O=C(c1ccc2c(c1)N(c1ncc(-c3ccccc3F)cn1)CC21CC1)N1CC[C@H](O)C1 [Compound 45, [1-[5-(2-Fluorophenyl)-pyrimidin-2-yl]-spiro[1,2-dihydro-indole-3,1′-cyclopropane]-6-yl]-[(3S)-3-hydroxy-pyrrolidin-1-yl]-methanone] | 0.1 to 1 |
| O=C(c1ccc2c(c1)N(c1ncc(-c3cc(Cl)ccc3F)cn1)CC21CC1)N1CCOCC1 [Compound 58, [1-[5-(5-Chloro-2-fluoro-phenyl)-pyrimidin-2-yl]-spiro[1,2-dihydro-indole-3,1′-cyclopropane]-6-yl]-morpholin-4-yl-methanone] | < 0.1 |
| NC(=O)c1ccnc(-c2cnc(N3CC4(CC4)c4ccc(C(=O)N5CCOCC5)cc43)nc2)c1 [Compound 164, 2-[2-[6-(Morpholine-4-carbonyl)-spiro[1,2-dihydro-indole-3,1′-cyclopropane]-1-yl]-pyrimidin-5-yl]-pyridine-4-carboxylic acid amide] | < 0.1 |
| 4-[1-[5-(3-Methoxyphenyl)-pyrimidin-2-yl]-spiro[1,2-dihydro-indole-3,1′-cyclopropane]-6-carbonyl]-piperazin-2-one [Compound 189] | < 0.1 |
